Laboratory results as given in ChEMBL document CHEMBL1201862, “PubChem BioAssay data set” (2004).
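Assay format: 96-well plates, 48-hour exposure. GI50 marks 50% less growth.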 The source made the active and inactive calls. Cut-off read from the data, not from the text of the source: active = GI50 up to about 1.1 µM and inactive = higher.

Assays:
Test in all cases: growth of human tumour cells (NCI), 48 h
HOP-62 = tested on: HOP-62
MOLT-4 = tested on: MOLT-4
SNB-75 = tested on: SNB-75
SK-MEL-28 = tested on: SK-MEL-28
CAKI-1 = tested on: CAKI-1
ACHN = tested on: ACHN
M19-MEL = tested on: M19-MEL
Malme-3M = tested on: Malme-3M
U-251 = tested on: U-251
OVCAR-3 = tested on: OVCAR-3
DLD-1 = tested on: DLD-1
UO-31 = tested on: UO-31
OVCAR-5 = tested on: OVCAR-5
NCI-H226 = tested on: NCI-H226
A498 = tested on: A498
SK-MEL-2 = tested on: SK-MEL-2
LOX IMVI = tested on: LOX IMVI
NCI-H23 = tested on: NCI-H23
K562 = tested on: K562
786-0 = tested on: 786-0
XF498 = tested on: XF498
A549 = tested on: A549
SN12C = tested on: SN12C
SF-295 = tested on: SF-295
HOP-92 = tested on: HOP-92
OVCAR-8 = tested on: OVCAR-8
OVCAR-4 = tested on: OVCAR-4
SK-MEL-5 = tested on: SK-MEL-5
HT-29 = tested on: HT-29
SK-OV-3 = tested on: SK-OV-3
HCT-15 = tested on: HCT-15
UACC-62 = tested on: UACC-62
NCI-H460 = tested on: NCI-H460
UACC-257 = tested on: UACC-257
LXFL 529 = tested on: LXFL 529
CCRF-CEM = tested on: CCRF-CEM
SNB-19 = tested on: SNB-19
NCI-H522 = tested on: NCI-H522
EKVX = tested on: EKVX
DMS-273 = tested on: DMS-273
HL-60 = tested on: HL-60
DMS-114 = tested on: DMS-114
SW-620 = tested on: SW-620
HCC 2998 = tested on: HCC 2998
SNB-78 = tested on: SNB-78
KM-20L2 = tested on: KM-20L2
IGROV-1 = tested on: IGROV-1
M14 = tested on: M14
RPMI-8226 = tested on: RPMI-8226
SF-539 = tested on: SF-539
RXF 631 = tested on: RXF 631
COLO 205 = tested on: COLO 205
SF-268 = tested on: SF-268
KM12 = tested on: KM12
HOP-18 = tested on: HOP-18
TK-10 = tested on: TK-10
RXF 393 = tested on: RXF 393
HCT-116 = tested on: HCT-116

Question: How did the GI50 (HOP-62) turn out when `COc1ccc(NC(=O)NS(=O)(=O)c2ccc(C)cc2)nn1` was run?
Answer: > 100 µM (inactive)

Question: What about the GI50 (MOLT-4) of the same molecule?
Answer: > 100 µM (inactive)

Question: And the GI50 (SNB-75)?
Answer: > 100 µM (inactive)

Question: What about the GI50 (SK-MEL-28) of the same molecule?
Answer: > 100 µM (inactive)

Question: What about the GI50 (CAKI-1) of the same molecule?
Answer: > 100 µM (inactive)

Question: What about the GI50 (ACHN) of the same molecule?
Answer: > 100 µM (inactive)

Question: What about the GI50 (M19-MEL) of the same molecule?
Answer: > 100 µM (inactive)

Question: What about the GI50 (Malme-3M) of the same molecule?
Answer: > 100 µM (inactive)

Question: And the GI50 (U-251)?
Answer: > 100 µM (inactive)

Question: What about the GI50 (OVCAR-3) of the same molecule?
Answer: > 100 µM (inactive)

Question: And the GI50 (DLD-1)?
Answer: > 100 µM (inactive)

Question: And the GI50 (UO-31)?
Answer: > 100 µM (inactive)

Question: What about the GI50 (OVCAR-5) of the same molecule?
Answer: > 100 µM (inactive)

Question: And the GI50 (NCI-H226)?
Answer: > 100 µM (inactive)

Question: And the GI50 (A498)?
Answer: > 100 µM (inactive)

Question: And the GI50 (SK-MEL-2)?
Answer: > 100 µM (inactive)

Question: And the GI50 (LOX IMVI)?
Answer: > 100 µM (inactive)

Question: And the GI50 (NCI-H23)?
Answer: > 100 µM (inactive)

Question: And the GI50 (K562)?
Answer: > 100 µM (inactive)

Question: What about the GI50 (786-0) of the same molecule?
Answer: > 100 µM (inactive)

Question: What about the GI50 (XF498) of the same molecule?
Answer: > 100 µM (inactive)

Question: What about the GI50 (A549) of the same molecule?
Answer: > 100 µM (inactive)

Question: What about the GI50 (SN12C) of the same molecule?
Answer: > 100 µM (inactive)

Question: What about the GI50 (SF-295) of the same molecule?
Answer: > 100 µM (inactive)

Question: What about the GI50 (HOP-92) of the same molecule?
Answer: > 100 µM (inactive)

Question: What about the GI50 (OVCAR-8) of the same molecule?
Answer: > 100 µM (inactive)

Question: And the GI50 (OVCAR-4)?
Answer: > 100 µM (inactive)

Question: What about the GI50 (SK-MEL-5) of the same molecule?
Answer: > 100 µM (inactive)

Question: And the GI50 (HT-29)?
Answer: > 100 µM (inactive)

Question: What about the GI50 (SK-OV-3) of the same molecule?
Answer: > 100 µM (inactive)

Question: And the GI50 (HCT-15)?
Answer: > 100 µM

Question: And the GI50 (UACC-62)?
Answer: > 100 µM (inactive)

Question: What about the GI50 (NCI-H460) of the same molecule?
Answer: > 100 µM (inactive)

Question: What about the GI50 (UACC-257) of the same molecule?
Answer: > 100 µM (inactive)

Question: And the GI50 (LXFL 529)?
Answer: > 100 µM (inactive)

Question: What about the GI50 (CCRF-CEM) of the same molecule?
Answer: > 100 µM (inactive)

Question: What about the GI50 (SNB-19) of the same molecule?
Answer: > 100 µM (inactive)

Question: And the GI50 (NCI-H522)?
Answer: > 100 µM (inactive)

Question: And the GI50 (EKVX)?
Answer: > 100 µM (inactive)

Question: And the GI50 (DMS-273)?
Answer: > 100 µM (inactive)

Question: What about the GI50 (HL-60) of the same molecule?
Answer: > 100 µM (inactive)

Question: And the GI50 (DMS-114)?
Answer: > 100 µM (inactive)

Question: And the GI50 (SW-620)?
Answer: > 100 µM (inactive)

Question: And the GI50 (HCC 2998)?
Answer: > 100 µM (inactive)

Question: What about the GI50 (SNB-78) of the same molecule?
Answer: > 100 µM (inactive)

Question: What about the GI50 (KM-20L2) of the same molecule?
Answer: > 100 µM (inactive)

Question: And the GI50 (IGROV-1)?
Answer: > 100 µM (inactive)

Question: What about the GI50 (M14) of the same molecule?
Answer: > 100 µM (inactive)

Question: What about the GI50 (RPMI-8226) of the same molecule?
Answer: > 100 µM (inactive)

Question: And the GI50 (SF-539)?
Answer: > 100 µM (inactive)

Question: What about the GI50 (RXF 631) of the same molecule?
Answer: > 100 µM (inactive)

Question: And the GI50 (COLO 205)?
Answer: > 100 µM (inactive)

Question: What about the GI50 (SF-268) of the same molecule?
Answer: > 100 µM (inactive)

Question: And the GI50 (KM12)?
Answer: > 100 µM (inactive)

Question: And the GI50 (HOP-18)?
Answer: > 100 µM (inactive)

Question: And the GI50 (TK-10)?
Answer: > 100 µM (inactive)

Question: What does the source list for `NC(=S)N/N=C(\C(=O)Nc1cccc([N+](=O)[O-])c1)c1nc2ccc([N+](=O)[O-])cc2nc1O`?
Answer: GI50 (RXF 393): > 100 µM (inactive); GI50 (HOP-62): 56.8 µM (inactive); GI50 (MOLT-4): 18.2 µM (inactive); GI50 (SNB-75): > 100 µM (inactive); GI50 (SK-MEL-28): > 100 µM (inactive); GI50 (ACHN): 21.4 µM (inactive); GI50 (M19-MEL): > 100 µM (inactive); GI50 (Malme-3M): > 100 µM (inactive); GI50 (U-251): > 100 µM (inactive); GI50 (DLD-1): 42 µM (inactive); GI50 (UO-31): > 100 µM (inactive); GI50 (OVCAR-5): > 100 µM (inactive); GI50 (NCI-H226): > 100 µM (inactive); GI50 (A498): > 100 µM (inactive); GI50 (SK-MEL-2): > 100 µM (inactive); GI50 (LOX IMVI): 34.7 µM (inactive); GI50 (NCI-H23): > 100 µM (inactive); GI50 (K562): 89.5 µM (inactive); GI50 (786-0): > 100 µM (inactive); GI50 (XF498): 36.1 µM (inactive); GI50 (A549): 91.2 µM (inactive); GI50 (SF-295): > 100 µM (inactive); GI50 (HOP-92): > 100 µM (inactive); GI50 (OVCAR-8): > 100 µM (inactive); GI50 (OVCAR-4): > 100 µM (inactive); GI50 (SK-MEL-5): 30.9 µM (inactive); GI50 (HT-29): > 100 µM (inactive); GI50 (SK-OV-3): > 100 µM (inactive); GI50 (HCT-15): 29.4 µM; GI50 (UACC-62): 51.4 µM (inactive); GI50 (NCI-H460): 74.6 µM (inactive); GI50 (UACC-257): 7.8 µM (inactive); GI50 (LXFL 529): 71.1 µM (inactive); GI50 (CCRF-CEM): 34.8 µM (inactive); GI50 (SNB-19): > 100 µM (inactive); GI50 (NCI-H522): 3.85 µM (inactive); GI50 (EKVX): 54.3 µM (inactive); GI50 (DMS-273): 44.4 µM (inactive); GI50 (HL-60): 19.9 µM (inactive); GI50 (DMS-114): 20.7 µM (inactive); GI50 (SW-620): > 100 µM (inactive); GI50 (HCC 2998): 21.9 µM (inactive); GI50 (KM-20L2): 37.2 µM (inactive); GI50 (IGROV-1): > 100 µM (inactive); GI50 (HCT-116): 58.5 µM (inactive); GI50 (M14): 88.9 µM (inactive); GI50 (RPMI-8226): > 100 µM (inactive); GI50 (SF-539): 63.1 µM (inactive); GI50 (RXF 631): > 100 µM (inactive); GI50 (COLO 205): > 100 µM (inactive); GI50 (SF-268): > 100 µM (inactive); GI50 (KM12): 40.6 µM (inactive); GI50 (HOP-18): 15 µM (inactive); GI50 (TK-10): > 100 µM (inactive)
